Data reported in patent US11453660B2, “Androgen receptor and glucocorticoid receptor modulators” (ONCOSTELLAE, S.L., priority 2017, dated 2022).
Positions count from the first letter of the chain named.

Experiments:
[1] = molecular target: T1, Human Glucocorticoid Receptor (Homo sapiens, UniProt P04150); assay: Competition Binding in IM-9 Human Glucocorticoid Receptor (GR IM-9); conditions: cytosol from IM-9 cell line, 1.5 nM [3H]-Dexamethasone, 4° C. for 6 hours
T1 construct: endogenous in cells; host or cells: cytosol from IM-9 cell line
T1 sequence (P04150 1-777): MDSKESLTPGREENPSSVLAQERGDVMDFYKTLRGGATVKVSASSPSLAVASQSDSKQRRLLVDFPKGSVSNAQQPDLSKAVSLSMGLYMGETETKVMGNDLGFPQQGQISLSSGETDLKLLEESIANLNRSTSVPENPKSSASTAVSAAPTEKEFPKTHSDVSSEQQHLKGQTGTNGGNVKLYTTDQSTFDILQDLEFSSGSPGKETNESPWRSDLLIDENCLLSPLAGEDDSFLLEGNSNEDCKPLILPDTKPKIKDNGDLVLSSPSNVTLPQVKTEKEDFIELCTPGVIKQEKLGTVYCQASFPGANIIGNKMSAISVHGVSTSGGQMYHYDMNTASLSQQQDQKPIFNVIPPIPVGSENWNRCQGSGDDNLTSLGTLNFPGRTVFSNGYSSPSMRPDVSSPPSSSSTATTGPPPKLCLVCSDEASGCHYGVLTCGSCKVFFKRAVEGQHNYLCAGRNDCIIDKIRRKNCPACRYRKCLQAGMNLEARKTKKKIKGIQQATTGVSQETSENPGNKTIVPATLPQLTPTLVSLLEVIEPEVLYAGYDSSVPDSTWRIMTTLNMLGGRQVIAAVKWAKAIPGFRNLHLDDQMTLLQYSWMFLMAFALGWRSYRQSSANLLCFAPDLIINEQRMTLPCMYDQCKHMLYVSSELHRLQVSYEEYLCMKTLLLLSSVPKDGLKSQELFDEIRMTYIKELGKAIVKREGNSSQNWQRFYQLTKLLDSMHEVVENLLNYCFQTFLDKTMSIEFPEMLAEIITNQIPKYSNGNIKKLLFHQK
How it was run: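 Radioligand competition using 100 μg IM-9 cell cytosol and 1.5 nM [3H]-dexamethasone, incubated 6 h at 4° C in TES/molybdate buffer, pH 7.4. Filtration on PEI-treated GF/B filters, scintillation counting; nonspecific binding defined with 10 μM triamcinolone.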

[2] = molecular target: T2, AR-Receptor (Homo sapiens, UniProt P10275); assay: Functional Assay AR-Receptor (MDA-MB-453 cells, luciferase); assay type: cell-based; conditions: antagonist effect in the presence of DHT 1 nM, 24 h, luciferase luminescence, read-out: AR antag KB
T2 sequence (P10275 1-920 Q868H): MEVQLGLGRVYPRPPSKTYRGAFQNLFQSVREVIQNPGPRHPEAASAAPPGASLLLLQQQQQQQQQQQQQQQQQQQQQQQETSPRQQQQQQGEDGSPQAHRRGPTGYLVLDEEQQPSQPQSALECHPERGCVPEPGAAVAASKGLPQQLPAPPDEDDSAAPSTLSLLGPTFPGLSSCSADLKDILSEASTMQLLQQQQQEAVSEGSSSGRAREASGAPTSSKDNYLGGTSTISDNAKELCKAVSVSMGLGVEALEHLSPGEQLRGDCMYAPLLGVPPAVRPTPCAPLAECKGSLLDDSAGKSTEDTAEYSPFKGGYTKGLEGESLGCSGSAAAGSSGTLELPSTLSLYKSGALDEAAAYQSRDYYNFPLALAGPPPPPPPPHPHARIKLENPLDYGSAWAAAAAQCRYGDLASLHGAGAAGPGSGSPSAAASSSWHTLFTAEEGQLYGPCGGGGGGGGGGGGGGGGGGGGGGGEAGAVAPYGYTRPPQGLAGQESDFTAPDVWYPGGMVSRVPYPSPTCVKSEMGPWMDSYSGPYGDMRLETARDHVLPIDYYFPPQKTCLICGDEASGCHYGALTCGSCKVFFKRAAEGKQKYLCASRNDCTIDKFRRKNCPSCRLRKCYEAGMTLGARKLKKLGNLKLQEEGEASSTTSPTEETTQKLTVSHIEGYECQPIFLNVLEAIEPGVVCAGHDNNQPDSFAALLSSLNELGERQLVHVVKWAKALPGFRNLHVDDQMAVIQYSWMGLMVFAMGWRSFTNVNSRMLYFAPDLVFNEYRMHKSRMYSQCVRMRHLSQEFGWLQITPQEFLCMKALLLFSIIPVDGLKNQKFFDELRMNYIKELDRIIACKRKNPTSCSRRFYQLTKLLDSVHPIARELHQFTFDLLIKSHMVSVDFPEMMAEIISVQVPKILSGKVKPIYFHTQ
Method: Functional Assay AR-Receptor
MDA-MB-453 cells were cultured in DMEM (ATCC, ref 30-2002), 10% FBS, 1% penicillin, 1% streptomycin, 75 μg/ml gentamycin.
The day before performing assay, the cells were trypsinized and seeded in a 384-well plate (Greiner, ref 781098) (8000 cells/well) in 50 μl of complete culture medium. Cells were stores at 37° C. in a 5% CO2 atmosphere overnight.
The medium was replaced by 50 μl complete growth medium with 0.1% FBS. Compounds were dispensed with Echo 550 (Labcyte) and incubated for 24 h at 37° C. in a 5% CO2 atmosphere. Antagonist effect was measured in the presence of DHT 1 nM.
After incubation, assay medium removed and 20 μl of 1× Promega lysis buffer were added to each well. The plate was incubated 15 minutes at RT and quick-frozen to −80° C. and the thaw to room temperature. 50 μl of luciferase substrate (E4550, Promega) were added to each well and luminescence (integration time 1000 msec) was read in an EnSpire multilabel reader (Perkin Elmer).

[3] = molecular target: T3, Rat Androgen Receptor (Rattus norvegicus, UniProt P15207); assay: Rat Androgen Receptor Binding (polarscreen AR competitor assay, fluorescence polarization); conditions: displacement of Fluormone AL Green, 4 hours at RT, read-out: AR rat-fluorimetric
T3 construct: purchased Life Technologies A15880
T3 sequence (P15207 646-902 limits assumed): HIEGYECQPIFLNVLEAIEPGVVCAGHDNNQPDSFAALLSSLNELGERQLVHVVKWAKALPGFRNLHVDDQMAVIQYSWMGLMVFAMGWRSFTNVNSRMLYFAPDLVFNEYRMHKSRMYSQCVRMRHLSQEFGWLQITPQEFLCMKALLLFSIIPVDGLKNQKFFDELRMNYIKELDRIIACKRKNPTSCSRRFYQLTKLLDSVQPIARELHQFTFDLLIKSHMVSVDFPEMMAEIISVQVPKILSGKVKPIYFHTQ
How it was run: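 Fluorescence-polarization competition of Fluormone AL Green binding to rat androgen receptor; compounds screened in duplicate at 1 and 10 μM, 4 h at RT, read at λexc 485/λem 535 nm. IC50 from 1:10 dilution series, 10 μM to 0.1 nM, in 1× buffer.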

[4] = molecular target: T4, human androgen receptor (Homo sapiens, UniProt P10275, T878A); assay: Human Androgen Receptor Binding (radioligand binding, LnCap prostate cancer cell line); conditions: LnCap cells, displacement of [^3H]-methyltrienolone, 2 hours at 37° C.; read-out: AR LNCaP
T4 construct: endogenously expressed human androgen receptor using the LnCap prostate cancer cell line; endogenous in cells; host or cells: LNCaP prostate cancer cell line (whole cells)
T4 sequence (P10275 1-920 T878A): T2 sequence (P10275 1-920 Q868H) with H868Q, T878A
How it was run: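 Whole-cell displacement of [3H]-methyltrienolone from endogenous AR (T878A) in LnCap cells, in RPMI with 0.1% BSA and triamcinolone acetonide. Compounds 10 μM to 0.1 nM in 1:10 steps, 2 h at 37 °C; cells washed, SDS-lysed, bound radioactivity by scintillation counting for IC50.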

Row | Molecule | IC50 [1] [nM] | Kb [2] [nM] | IC50 [3] [nM] | IC50 [4] [nM]
1 | CC(=O)C1=C(C)NC(C)=C(C(=O)OCc2ccncc2)C1c1csc2ccc(Cl)cc12 (stereo not drawn) [Example C62, Pyridin-4-ylmethyl 5-acetyl-4-(5-chlorobenzo[b]thiophen-3-yl)-2,6-dimethyl-1,4-dihydropyridine-3-carboxylate] | – | 100 to 1000 | – | –
2 | COC(=O)C1=C(C(F)(F)F)NC(C)=C(C(C)=O)C1c1csc2ccccc12 (stereo not drawn) [Example C14, Methyl 5-acetyl-4-(benzo[b]thiophen-3-yl)-6-methyl-2-(trifluoromethyl)-1,4-dihydropyridine-3-carboxylate] | 100 to 1000 | – | 100 to 1000 | < 100
3 | COC(=O)C1=C(C)NC(N)=C(C(=O)OC)C1c1csc2c(C#N)cccc12 (stereo not drawn) [Example D7, Dimethyl 2-amino-4-(7-cyanobenzo[b]thiophen-3-yl)-6-methyl-1,4-dihydropyridine-3,5-dicarboxylate] | < 100 | ≥ 1000 | – | –
4 | COC(=O)C1=C(N)NC(C)=C(C(C)=O)C1c1csc2ccccc12 (stereo not drawn) [Example D1, Methyl 5-acetyl-2-amino-4-(benzo[b]thiophen-3-yl)-6-methyl-1,4-dihydropyridine-3-carboxylate] | ≥ 1000 | – | < 100 | 100 to 1000
5 | COC(=O)C1=C(C2CC2)NC(C)=C(C(C)=O)C1c1csc2ccc(F)cc12 (stereo not drawn) [Example J22, Methyl 5-acetyl-2-cyclopropyl-4-(5-fluorobenzo[b]thiophen-3-yl)-6-methyl-1,4-dihydropyridine-3-carboxylate] | < 100 | – | < 100 | < 100
6 | CC(=O)C1=C(C)NC(C)=C(C(=O)OCc2cccnc2)C1c1csc2ccc(F)cc12 (stereo not drawn) [Example C57, Pyridin-3-ylmethyl 5-acetyl-4-(5-fluorobenzo[b]thiophen-3-yl)-2,6-dimethyl-1,4-dihydropyridine-3-carboxylate] | – | 100 to 1000 | – | –
7 | COC(=O)C1=C(C)NC(C)=C(C(C)=O)C1c1csc2ncccc12 (stereo not drawn) [Example J21, Methyl 5-acetyl-2,6-dimethyl-4-(thieno[2,3-b]pyridin-3-yl)-1,4-dihydropyridine-3-carboxylate] | – | – | < 100 | < 100
8 | CC(=O)C1=C(C)NC(C)=C(C(=O)OCc2cccnc2)C1c1csc2ccc(Cl)cc12 (stereo not drawn) [Example C60, Pyridin-3-ylmethyl 5-acetyl-4-(5-chlorobenzo[b]thiophen-3-yl)-2,6-dimethyl-1,4-dihydropyridine-3-carboxylate] | – | 100 to 1000 | – | –
9 | CC(=O)C1=C(C)NC(C)=C(C(=O)OCC2CC2)C1c1csc2ccccc12 (stereo not drawn) [Example C6, Cyclopropylmethyl 5-acetyl-4-(benzo[b]thiophen-3-yl)-2,6-dimethyl-1,4-dihydropyridine-3-carboxylate] | < 100 | – | 100 to 1000 | 100 to 1000

The next lines start with the values.

Row | IC50 [1] [nM] | Kb [2] [nM] | IC50 [3] [nM] | IC50 [4] [nM] | Molecule
10 | < 100 | 100 to 1000 | – | – | CC(=O)C1=C(C)NC(C2CC2)=C(C(=O)OCc2ccc(C#N)cc2)C1c1csc2ncccc12 (stereo not drawn) [Example J43, 4-cyanobenzyl 5-acetyl-2-cyclopropyl-6-methyl-4-(thieno[2,3-b]pyridin-3-yl)-1,4-dihydropyridine-3-carboxylate]
11 | – | 100 to 1000 | – | – | Benzyl 5-acetyl-4-(7-(methoxycarbonyl)benzo[b]thiophen-3-yl)-2,6-dimethyl-1,4-dihydropyridine-3-carboxylate [Example J38]
12 | – | 100 to 1000 | – | – | CC(=O)C1=C(C)NC(C)=C(C(=O)OCc2ccc(-c3ccncc3)nc2)C1c1csc2ncccc12 (stereo not drawn) [Example L9, [2,4′-bipyridin]-5-ylmethyl 5-acetyl-2,6-dimethyl-4-(thieno[2,3-b]pyridin-3-yl)-1,4-dihydropyridine-3-carboxylate]
13 | – | 100 to 1000 | – | – | CC(=O)C1=C(C)NC(C2CC2)=C(C(=O)OCc2ccncc2)C1c1csc2ccc(Cl)cc12 (stereo not drawn) [Example J34, Pyridin-4-ylmethyl 5-acetyl-4-(5-chlorobenzo[b]thiophen-3-yl)-2-cyclopropyl-6-methyl-1,4-dihydropyridine-3-carboxylate]
